Converted amounts (≈) assume the structure as drawn.
Key:
Streptococcus pneumoniae = experiment: Broth microdilution MIC; format: cell-based; conditions: ATCC49619
Procedure: (§1) Bacterial Isolates. Organisms tested in this study are listed in Table P. Clinical isolates consisted of 5 Staphylococcus aureus (MSSA), 3 Staphylococcus aureus (HA-MRSA), 2 Staphylococcus aureus (CA-MRSA), 2 Enterococcus faecalis (VSE), 2 Streptococcus pyogenes, and 2 Escherichia coli (susceptible to most antibiotics). S. aureus ATCC 29213, E. faecalis ATCC 29212, S. pneumoniae ATCC 49619, and E. coli ATCC 25922 were tested for the purposes of quality control.
(§2) Minimal Inhibitory Concentrations (MIC) values against the selected isolates were determined using the reference broth microdilution method according to the Clinical Laboratory Standards Institute (CLSI) guidelines.
(§3) The MIC was read and recorded as the lowest concentration of drug that inhibited visible growth of the organism.

Enterococcus faecalis = experiment: Broth microdilution MIC; format: cell-based
Procedure: as §1, §2, §3

Escherichia coli = experiment: Broth microdilution MIC; format: cell-based
Procedure: as §1, §2, §3

Streptococcus pyogenes = experiment: Broth microdilution MIC; format: cell-based
Procedure: as §1, §2, §3

Staphylococcus aureus = experiment: Broth microdilution MIC; format: cell-based; conditions: Staphylococcus aureus
Procedure: as §1, §2, §3

[1] = Solid-state stability (HPLC % area after storage); format: physicochemical; conditions: for Solid-state stability % Area: 4 weeks
Procedure: (§4) Various compounds disclosed herein have been placed on long-term solid-state stability protocol. The compounds were stored in glass vials closed with PTFE lined caps at 30° C./65% RH, 40° C./75% RH, 50° C. and 60° C. (ambient humidity). The results of the study after 4 weeks are shown in Table B1 and after 3 months in Table B2. Appearance and purity analysis were conducted using HPLC and XPRD. The HPLC analyses were conducted using standard equipment such as a Agilent HP1100 HPLC (Station ID: LZPES HPLC 04) with YMC-Pack ODS-AQ sub 3 μm, 150×4.6 mm

[2] = Aqueous solubility of salts at 25° C.; format: physicochemical; conditions: water, 25° C., mg free acid equivalent/mL; for Solubility in Water: dipotassium salt
[3] = XRPD crystal form after storage; format: physicochemical; conditions: 4 weeks storage
Procedure: as §4, with “mm Samples were prepared for XRPD by sprinkling ˜20 mg onto a Si wafer zero background plate and pressing the material flat to ensure the surface is smooth and level. The samples were analyzed according the equipment parameters below.” for “mm”

## CN[C@H](CC(C)C)C(=O)N[C@H]1C(=O)N[C@@H](CC(N)=O)C(=O)N[C@H]2C(=O)N[C@H]3C(=O)N[C@H](C(=O)N[C@H](C(=O)O)c4cc(O)cc(O)c4-c4cc3ccc4O)[C@H](O)c3ccc(c(Cl)c3)Oc3cc2cc(c3O[C@@H]2O[C@H](CO)[C@@H](O)[C@H](O)[C@H]2O[C@H]2C[C@](C)(N)[C@H](O)[C@H](C)O2)Oc2ccc(cc2Cl)[C@H]1O [Vancomycin]
Streptococcus pneumoniae
  MIC: 0.12 µg/mL (≈ 0.0828 µM)
Enterococcus faecalis; ATCC29212, E. faecalis ATCC 29212
  MIC: 1 µg/mL (≈ 0.69 µM)
Enterococcus faecalis; E. faecalis 4158, VSE
  MIC: > 64 µg/mL
Enterococcus faecalis; E. faecalis 4212, VSE
  MIC: 16 µg/mL (≈ 11 µM)
Escherichia coli; E. coli 5255
  MIC: >64 µg/mL
Escherichia coli; Escherichia coli
  MIC: > 64 µg/mL
Escherichia coli; Escherichia coli, ATCC25922
  MIC: > 64 µg/mL
Streptococcus pyogenes; S. pyogenes 6528
  MIC: 0.25 µg/mL (≈ 0.173 µM)
Streptococcus pyogenes; Streptococcus pyogenes
  MIC: 0.25 µg/mL (≈ 0.173 µM)
Staphylococcus aureus; ATCC29213, S. aureus ATCC 29213
  MIC: 0.5 µg/mL (≈ 0.345 µM)
Staphylococcus aureus; MRSA, S. aureus 3083, HA-MRSA
  MIC: 0.5 µg/mL (≈ 0.345 µM)
Staphylococcus aureus; MRSA, S. aureus 3086, HA-MRSA
  MIC: 1 µg/mL (≈ 0.69 µM)
Staphylococcus aureus; MRSA, S. aureus 3265, HA-MRSA
  MIC: 0.5 µg/mL (≈ 0.345 µM)
Staphylococcus aureus; MSSA, S. aureus 3104
  MIC: 0.5 µg/mL (≈ 0.345 µM)
Staphylococcus aureus; MSSA, S. aureus 3107
  MIC: 0.5 µg/mL (≈ 0.345 µM)
Staphylococcus aureus; MSSA, S. aureus 3245
  MIC: 0.5 µg/mL (≈ 0.345 µM)
Staphylococcus aureus; MSSA, S. aureus 3250
  MIC: 0.5 µg/mL (≈ 0.345 µM)
Staphylococcus aureus; MSSA, S. aureus 3856
  MIC: 1 µg/mL (≈ 0.69 µM)
Staphylococcus aureus; S. aureus 2168, CAMRSA
  MIC: 1 µg/mL (≈ 0.69 µM)
Staphylococcus aureus; S. aureus 2294, CAMRSA
  MIC: 1 µg/mL (≈ 0.69 µM)

## (E)-6-[(N-methyl-((3-methylbenzofuran-2-yl)methyl)amino)-3-oxoprop-1-en-1-yl)-2-oxo-3,4-dihydro-1,8-naphthyridin-1(2H)-yl]methylphosphate dipotassium salt [Bis-Potassium (crystalline) (Compound 11)]
[1]; 30° C./65% RH
  Solid-state stability % Area: 87.8 % Area
[1]; 40° C./75% RH
  Solid-state stability % Area: 64.3 % Area
[1]; 50° C./ambient humidity
  Solid-state stability % Area: 72.5 % Area
[1]; 60° C./ambient humidity
  Solid-state stability % Area: 50.7 % Area
[1]; Control (ambient lab conditions protected from light)
  Solid-state stability % Area: 95.4 % Area
[2]
  Solubility in Water: 30 to 35 mg/mL

## Cc1c(CN(C)C(=O)/C=C/c2cnc3c(c2)CCC(=O)N3COP(=O)([O-])[O-])oc2ccccc12.[K+].[K+] [Compound 11]
[3]
  change in XRPD: some changes
[1]; 4 weeks at 40/75
  content after storage (degradation): ~65%
[1]; over 1 month at 30° C./65% RH, 40° C./75% RH and 50° C., closed vials, light protected
  chemical stability: not chemically stable

## (E)-6-[(N-methyl-((3-methylbenzofuran-2-yl)methyl)amino)-3-oxoprop-1-en-1-yl)-2-oxo-3,4-dihydro-1,8-naphthyridin-1(2H)-yl]methylphosphate dipotassium salt [Bis-Potassium (amorphous) (Compound 11)]
[2]
  Solubility in Water: >100 mg/mL

## Cc1c(CN(C)C(=O)/C=C/c2cnc3c(c2)CCC(=O)N3)oc2ccccc12 [Compound IV, (E)-N-methyl-N-((3-methylbenzofuran-2-yl)methyl)-3-(7-oxo-5,6,7,8-tetrahydro-1,8-naphthyridin-3-yl)acrylamide, reference compound]
[2]; 25 °C, thermodynamic from solid, read-out: Solubility in Water
  solubility: < 0.001 mg/mL

From patent US8901105B2, “Prodrug derivatives of (E)-N-methyl-N-((3-M ethylbenzofuran-2-yl)methyl)-3-(7-oxo-5,6,7,8-tetrahydro-1,8-naphthyridin-3-yl)acrylamide” (Affinium Pharmaceuticals, Inc., priority 2012, dated 2014)
